Source: US6415046B1, “Method and apparatus for the early detection of tissue pathology using wavelet transformation” (priority 1999, dated 2002)
Like-named read-outs stand apart in the source and are kept apart here. Marks after values point to notes of the source that are not given here.

What was measured:
[1] = test system: Male Sprague-Dawley SPF rats; conditions: mean±SEM
Procedure: Two groups of laboratory rats were used to perform two separate experiments (Experiments 1 and 2). Male Sprague-Dawley SPF rats (Charles River Laboratories, Wilmington, Ma.) weighing between 175-200 grams were used for each study. Rats were housed two per cage in a controlled-temperature (20-22° Celsius) room where they were exposed to a 12-hour light/dark cycle. Both groups of animals received food and either water or ethanol ad lib. Body weights were recorded on a weekly basis and fluid consumption was monitored in all groups for the duration of the study. The study was approved by the Louisiana State University Medical Center Institutional Animal Care and Use Committee.
(§1) Rats in the diabetic group were injected with streptozotocin (45 mg/kg) prepared in a 0.02 M sodium citrate solution (pH 4.5) via a tail vein to induce diabetes mellitus. Rats assigned to all other groups were injected with a similar volume of sodium citrate solution. Glycosylated hemoglobin (total) was measured in tail-vein blood in all rats within two days of echocardiographic examination using a commercially available kit (Sigma Chemical Co, St. Louis, Mo.).
(§2) Twenty-five rats were used in this experiment with five animals in each group.
All animals were anesthetized with a solution of ketamine-xylazine (50-mg/kg ketamine, 4-mg/kg xylazine, intraperitoneal) and the thoracic and upper abdominal areas shaved prior to echocardiography. The rats were positioned on a table for M-mode and two-dimensional echocardiograms. Studies were performed with a Toshiba Model 380 Echocardiography instrument (Toshiba America Medical Systems, Tustin, Calif.) using a 10 MHZ transducer calibrated with phantoms prior to use. Lateral resolution less than 0.20 mm within the ROI is achieved at the imaging depths used.

[2] = mean±SEM; for Body weights at the time of echocardiographic examination: Experiment 1; for Body weights: Experiment 2, 10-weeks
Procedure: Two groups of laboratory rats were used to perform two separate experiments (Experiments 1 and 2). Male Sprague-Dawley SPF rats (Charles River Laboratories, Wilmington, Ma.) weighing between 175-200 grams were used for each study. Rats were housed two per cage in a controlled-temperature (20-22° Celsius) room where they were exposed to a 12-hour light/dark cycle. Both groups of animals received food and either water or ethanol ad lib. Body weights were recorded on a weekly basis and fluid consumption was monitored in all groups for the duration of the study.
as §1, §2

[3] = test system: Male Sprague-Dawley SPF rats; conditions: 10-week rats
Procedure: In Experiment 2 (10-week), cardiac and renal tissues were harvested, rinsed in ice-cold physiologic saline, and then placed in 10% (v/v) formaldehyde solution in aqueous phosphate buffer (pH 7.4) (Mallinckrodt Inc., St. Louis, Mo.). Pancreatic tissue was harvested and fixed in buffered zinc-formaldehyde. Microscopic analysis were performed on H&E stained tissue slices.
Tissues from 10-week rats were analyzed using H&E staining. […] The degree of infiltration was evaluated qualitatively as none, few (1-4 cells per field), or marked infiltration.

[4] = Experiment 1 (5 Wks), diabetic rats, 4% ethanol
[5] = Experiment 1 (5 Wks), non-diabetic rats, 12% ethanol
[6] = Experiment 2 (10 Wks), diabetic rats, 4% ethanol
[7] = Experiment 2 (10 Wks), non-diabetic rats, 4% ethanol
[8] = Experiment 2 (10 Wks), non-diabetic rats, 12% ethanol
[9] = DE4 group (diabetic, 4% ethanol)
[10] = E12 group (non-diabetic, 12% ethanol)

## CCO [Ethanol, ethanol]
[1]; [4]
  IVSD: 0.120 ± 0.004 cm
  LVD: 0.455 ± 0.027 cm
  PWD: 0.143 ± 0.005 cm
[1]; [5]
  IVSD: 0.130 ± 0.007 cm
  LVD: 0.540 ± 0.027 cm
  PWD: 0.150 ± 0.003 cm
[1]; [6]
  IVSD: 0.105 ± 0.005 cm
  LVD: 0.618 ± 0.032 cm
  PWD: 0.125 ± 0.004^d cm
[1]; [7]
  IVSD: 0.126 ± 0.01^a cm
  LVD: 0.533 ± 0.033 cm
  PWD: 0.155 ± 0.005^c cm
[1]; [8]
  IVSD: 0.151 ± 0.004^b cm
  LVD: 0.593 ± 0.018 cm
  PWD: 0.159 ± 0.002^c cm
[2]; [9]
  Body weights at the time of echocardiographic examination: 292±22 grams (g)
  Body weights: 295 ± 16 g
[2]; [10]
  Body weights at the time of echocardiographic examination: 301±11 grams (g)
  Body weights: 581 ± 25 g
[2]; E4 group (non-diabetic, 4% ethanol)
  Body weights: 598 ± 29 g
[3]; [9]
  Rats with clear cells, indicative of glycogen deposition, in the kidney: 60%
[3]; DE group (diabetic, 4% ethanol)
  Lymphocytic infiltrates in myocardial IVS on histologic examination: did not show infiltrates
[3]; E4 group, all animals, graded none, few (1-4 cells per field), marked
  Lymphocytic infiltrates in myocardial IVS on histologic examination: marked lymphocytic infiltrates
[3]; E12 group, all animals, graded none, few (1-4 cells per field), marked
  Lymphocytic infiltrates in myocardial IVS on histologic examination: marked lymphocytic infiltrates
